Assay results taken from publication PMC5378611 (Drug testing and analysis, 2017).
Where two headings read alike, the source gives them in different places.

Experiments:
[1] = molecular target: serotonin transporters (SERT) (Rattus norvegicus, UniProt P31652); test: [3H]serotonin uptake inhibition via SERT in rat brain synaptosomes; assay type: cell-based
[2] = cited from earlier work
DAT = conditions: read-out: binding affinity toward DAT IC50; [3H]WIN-35,428; cited from earlier work
[3] = molecular target: norepinephrine transporters (NET) (Rattus norvegicus, UniProt Q63380); test: [3H]norepinephrine uptake inhibition via NET in rat brain synaptosomes; assay type: cell-based; conditions: times less potent, from IC50 values
[4] = molecular target: dopamine transporters (DAT) (Rattus norvegicus, UniProt P23977); test: [3H]dopamine uptake inhibition via DAT in rat brain synaptosomes; assay type: cell-based
[5] = read-out: [3H]5-HT uptake via SERT IC50, rat brain synaptosomes, 5 nM [3H]serotonin, mean ± SD, n = 3

serotonin transporters (SERT), sequence (P31652 whole entry): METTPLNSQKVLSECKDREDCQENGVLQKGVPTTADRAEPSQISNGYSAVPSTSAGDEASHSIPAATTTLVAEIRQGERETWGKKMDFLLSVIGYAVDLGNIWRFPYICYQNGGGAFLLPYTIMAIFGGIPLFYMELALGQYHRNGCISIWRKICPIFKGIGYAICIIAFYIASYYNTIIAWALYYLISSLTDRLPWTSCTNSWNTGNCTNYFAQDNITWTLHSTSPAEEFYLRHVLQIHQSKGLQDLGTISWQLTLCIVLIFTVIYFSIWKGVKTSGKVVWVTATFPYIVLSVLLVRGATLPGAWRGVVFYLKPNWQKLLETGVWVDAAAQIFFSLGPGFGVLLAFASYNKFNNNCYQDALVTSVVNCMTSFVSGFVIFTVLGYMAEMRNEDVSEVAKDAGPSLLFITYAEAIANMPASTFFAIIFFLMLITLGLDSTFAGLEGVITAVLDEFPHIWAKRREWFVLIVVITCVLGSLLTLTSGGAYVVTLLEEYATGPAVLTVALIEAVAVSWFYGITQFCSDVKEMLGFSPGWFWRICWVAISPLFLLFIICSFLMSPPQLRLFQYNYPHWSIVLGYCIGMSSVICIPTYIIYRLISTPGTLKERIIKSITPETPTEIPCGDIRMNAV
dopamine transporters (DAT), sequence (P23977 whole entry): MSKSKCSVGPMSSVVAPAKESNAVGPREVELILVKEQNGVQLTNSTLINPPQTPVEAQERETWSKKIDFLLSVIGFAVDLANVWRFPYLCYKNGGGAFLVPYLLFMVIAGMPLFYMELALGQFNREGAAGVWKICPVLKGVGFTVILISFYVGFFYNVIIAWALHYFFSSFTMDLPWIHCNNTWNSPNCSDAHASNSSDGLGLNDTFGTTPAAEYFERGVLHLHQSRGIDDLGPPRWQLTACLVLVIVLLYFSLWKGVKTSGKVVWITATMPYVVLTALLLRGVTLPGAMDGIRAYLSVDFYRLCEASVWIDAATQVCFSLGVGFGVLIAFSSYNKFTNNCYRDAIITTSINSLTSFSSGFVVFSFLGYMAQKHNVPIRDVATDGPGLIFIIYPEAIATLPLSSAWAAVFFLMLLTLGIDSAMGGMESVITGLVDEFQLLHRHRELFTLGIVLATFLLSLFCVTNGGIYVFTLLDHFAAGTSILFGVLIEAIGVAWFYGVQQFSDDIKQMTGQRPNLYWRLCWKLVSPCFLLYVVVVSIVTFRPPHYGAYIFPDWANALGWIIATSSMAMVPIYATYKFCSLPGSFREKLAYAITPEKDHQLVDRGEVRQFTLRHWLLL
norepinephrine transporters (NET), sequence (Q63380 1-617): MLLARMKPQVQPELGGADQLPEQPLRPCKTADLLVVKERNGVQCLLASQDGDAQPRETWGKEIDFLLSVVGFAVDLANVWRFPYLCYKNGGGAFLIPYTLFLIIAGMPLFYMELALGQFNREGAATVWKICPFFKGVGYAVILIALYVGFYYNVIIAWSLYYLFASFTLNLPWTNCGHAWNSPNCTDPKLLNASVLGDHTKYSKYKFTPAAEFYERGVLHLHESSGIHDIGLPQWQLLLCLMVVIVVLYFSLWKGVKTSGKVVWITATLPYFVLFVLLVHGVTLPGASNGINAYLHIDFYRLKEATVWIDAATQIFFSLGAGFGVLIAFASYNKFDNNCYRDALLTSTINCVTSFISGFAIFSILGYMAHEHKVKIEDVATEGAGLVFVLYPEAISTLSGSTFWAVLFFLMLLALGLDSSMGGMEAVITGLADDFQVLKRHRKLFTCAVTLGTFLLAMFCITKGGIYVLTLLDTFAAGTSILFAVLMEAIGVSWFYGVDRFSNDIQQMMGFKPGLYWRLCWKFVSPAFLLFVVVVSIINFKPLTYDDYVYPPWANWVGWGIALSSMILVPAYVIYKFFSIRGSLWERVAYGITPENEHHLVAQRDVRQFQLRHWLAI

SMILES | IC50 [1, 5] [µM] | potency relative to MPH in drug discrimination [2] | IC50 (DAT) [µM] | IC50 [1] [µM] | potency relative to (±)-threo-4F-MPH at the norepinephrine transporter [3] | IC50 [4] [µM]
COC(=O)[C@H](c1ccc(F)cc1)[C@H]1CCCCN1 (racemic) [(±)-erythro-4F-MPH, 4-Fluoromethylphenidate] | > 10 | – | – | – | – | –
COC(=O)[C@H](c1ccc(F)cc1)[C@H]1CCCCN1 (racemic) [(±)-threo-4F-MPH, 4-Fluoromethylphenidate] | 8.8 | about three times more potent than MPH | 0.035 | – | – | –
COC(=O)C(c1ccccc1)C1CCCCN1 (stereo not shown) [MPH, methyl-2-phenyl-2-(piperidin-2-yl)acetate] | – | – | – | > 10 | around 2.5 | 0.131 ± 0.0142
